Data on 15 compounds can be found in patent publication EP0594877A1, “Imidazo(1,2-c)quinazoline derivates as antihyper tensives and anti dysurics” (NATIONAL SCIENCE COUNCIL, priority 1992, dated 1994).

One assay has as its target α₁-Adrenergic receptor. The assay can be described thus: α₁-Adrenergic receptor binding assay with [³H] prazocin, rat brain cortex membranes. The following applies: 0.2 nM [³H] prazocin, pH 7.4. As to the method: (§1) After the removal of nuclei by centrifugation at 1000 x g for 10 min, P₂ membranes were pelleted by centrifuging the supernatant at 22,000 x g for 20 min. After two periods of centrifugation at 22,000 x g and resuspension in fresh buffer, the membrane suspension (about 2 mg/ml protein) was ready for use.
(§2) α₁-Adrenergic receptor binding assays (in triplicate) were carried out with 0.2 nM [³H] prazocin in a final volume of 1.0 ml of Tris buffer at pH 7.4 for 30 min at room temperature, using 10 µM phentolamine to determine non-specific binding. The concentrations of synthetic compounds for competition binding were in the range of 0.1 - 200 nM. α₂-adrenergic receptor binding assays (in triplicate) were carried out with 1 nM [³H] clonidine in the presence of 10 mM MgCl₂ and in a final volume of 1.0 ml of Tris buffer at pH 7.4 for 30 min at room temperature, using 10 µM clonidine to determine non-specific binding. The concentrations of synthetic compounds for competition binding were in the range of 0.1-100 µM. After binding had reached equilibrium, incubations were terminated by collecting the membranes on whatman GF/B filters; the filters were washed twice with 5 ml of 50 mM Tris buffer (pH 7.4) at 4°C. The amount of membrane protein used in each assay was in the range of 300-400 µg, as determined by the method of Lowry et al..

Assay [1] in a line: Antihypertensive activity: blood pressure and heart rate in anesthetized cats after i.v. administration. The assay is classed as in vivo. The following applies: for MBP (mm Hg) 1 hour / MBP (mm Hg) 2 hour: anesthetized cats. Here is the method:
(§3) Adult cats of either sex, 2-3 Kg, anesthetized with pentobarbital sodium (30 mg/Kg i.p.) were used. The trachea was intubated to provide artificial respiration with air by means of a Harvard respirator (respiration rate= 16-20/min and colume= 40-50 ml/stroke). Both femoral artery and vein were cannulated with PE 150 to monitor blood pressure and for drug administration respectively. Body temperature was maintained at 37.5°C with a heating pad and monitored with a rectal thermometer. Blood pressure was measured with a Statham P23D pressure transducer via a polyethylene cannula conducted to a right femoral artery. Heart rate was measured through a Grass Model 7B tachograph preamplifier triggered by the pulses of arterial blood pressure. All data were recorded on a Grass Model 7B polygraph.
The solvent (50% DM50) has no significant action on B.P. or H.R. However, Example 4 compound (250 µg/Kg) decreases B.P. immediately and reaches maximally at 5-10 minutes, and the duration of action is about 4 hours.

The target of the next assay is α₂-adrenergic receptor. In words: α₂-adrenergic receptor binding assay with [³H] clonidine, rat brain cortex membranes. The following applies: for Ki: 1 nM [³H] clonidine, 10 mM MgCl₂, rat brain cortex membranes, pH 7.4; for α₂/α₁ ratio: ratio of α₂ Ki to α₁ Ki. As to the method: as §1, §2
Assay [2] in a line: Antagonistic effect on blood pressure responses induced by phenylephrine or serotonin in cats. The assay is classed as in vivo. To be noted: cats pretreated with dose of ED₅₀ (0.25mg/kg). As to the method:
• Fig. 1 is a does-response plot of 2-(4-phenyl-1-piperazinyl)methyl-2,3-dihydroimidazo[1,2-c]-quinazoline-5(6H)-one (Example 4) on blood pressure in 5 cats; • Fig. 2 is a time-course of various doeses of Example 4 compound on blood pressure in cats; and • Fig. 3 is a plot showing antagonistic effect of Example 4 compound (0.25mg/kg) on blood pressures induced by phenylephrine (0.015mg/kg) or serotonin (0.020mg/kg).
as §3

[3] abbreviates: cats, i.v., 10 µg to 1 mg/kg, dose-dependent.

Turning to `O=C1Nc2ccccc2C2=NC(CN3CCN(Cc4ccc5c(c4)OCO5)CC3)CN12` (centres unmarked) [Example 6, 2-[4-piperonyl-1-piperazinyl]methyl-2,3-dihydroimidazo[1,2-c]quinazolin-5(6H)-one], at α₁-Adrenergic receptor, the inhibition constant (Ki) (in general, a dissociation constant, usually derived from enzyme kinetics or from competition with a known ligand) is greater than 100 nM.
Regarding `O=C1Nc2ccccc2C2=NC(CN3CCN(c4ccccn4)CC3)CN12` (centres unmarked) [Example 10, 2-[4-(2-Pyridinyl)-1-piperazinyl]methyl-2,3-dihydroimidazo[1,2-c]quinazolin-5(6H)-one], the inhibition constant Ki on α₁-Adrenergic receptor turned out to be 95.9 ± 5.2 nM.
`COc1cccc(N2CCN(CC3CN4C(=O)Nc5ccccc5C4=N3)CC2)c1` (centres unmarked) [Example 17, 2-[1-(3-methoxyphenyl)piperazinyl]methyl-2,3-dihydroimidazo[1,2-c]quinazolin-5(6H)-one]: in assay [1] (dose 4.0 mg/Kg), the “MBP (mm Hg) 1 hour” value is on record as -20.3±10.2 mm Hg and the “MBP (mm Hg) 2 hour” value was -8.5±2.6 mm Hg.
Taken in the same sequence, the figures for “2-(4-phenyl-1-piperazinyl)methyl-2,3-dihydroimidazo[1,2-c]quinazolin-5(6H)-thione [Example 20]” were -33.9±9.7 mm Hg and -22.5±7.6 mm Hg.
`O=C(c1ccc(F)cc1)C1CCN(CC2CN3C(=O)Nc4ccccc4C3=N2)CC1` (centres unmarked) [Example 15, 2-[1-(4-p-fluorobenzoyl)piperidinyl]methyl-2,3-dihydroimidazo[1,2-c]quinazolin-5(6H)-one]: in assay [1] (dose 4.0 mg/Kg), the “MBP (mm Hg) 1 hour” value was -30 ±7.3 mm Hg and the “MBP (mm Hg) 2 hour” value is given as -13.8±8.9 mm Hg.
`O=C1Nc2ccccc2C2=NC(CN3CCN(Cc4ccccc4)CC3)CN12` (centres unmarked) [Example 8, 2-[4-Benzyl-1-piperazinyl]methyl-2,3-dihydroimidazo[1,2-c]quinazolin-5(6H)-one] showed a Ki at α₁-Adrenergic receptor of 850 nM. At α₂-adrenergic receptor, the Ki is greater than 10000 nM and the α₂/α₁ ratio is recorded as greater than 11. In addition, in assay [1] (dose 4.0 mg/Kg), the “MBP (mm Hg) 1 hour” value is listed as -43.7±5.2 mm Hg.
As for `O=C1Nc2ccccc2C2=NC(CN3CCN(c4ccccc4Cl)CC3)CN12` (centres unmarked) [Example 26, 2-[4-(2-chlorophenyl)-1-piperazinyl]methyl-2,3-dihydroimidazo[1,2-c]quinazolin-5(6H)-one], the figures for the Ki on α₁-Adrenergic receptor and at α₂-adrenergic receptor were 1.1 ± 0.05 nM and 3170 ± 396 nM, respectively. The α₂/α₁ ratio in the assay on α₂-adrenergic receptor was determined as 3015. Also, the “MBP (mm Hg) 1 hour” value was -25.5±3.4 mm Hg in assay [1] (dose 0.5 mg/Kg) and -40.7±9.7 mm Hg in assay [1] (dose 1.0 mg/Kg). For the same compound, the “MBP (mm Hg) 2 hour” value is listed as -5.7±1.5 mm Hg in assay [1] (dose 0.5 mg/Kg) and -12.6±3.4 mm Hg in assay [1] (dose 1.0 mg/Kg).
At α₁-Adrenergic receptor, `O=C1Nc2ccccc2C2=NC(CN3CCN(c4ccccc4)CC3)CN12` (centres unmarked) [Example 4, 2-(4-phenyl-1-piperazinyl)methyl-2,3-dihydroimidazo[1,2-c]quinazolin-5(6H)-one] registered a Ki of 2.01 ± 0.09 nM. Further, in assay [2] (phenylephrine 0.015mg/kg, p<0.02), the “blood pressure response to PE” value is recorded as “significantly antagonizes”. For the same compound, the “blood pressure response to 5-HT” value in assay [2] (serotonin 0.020mg/kg, p>0.05) is “no effect”. Besides, the ED50 in assay [1] (Felis catus, iv, cats, i.v., read-out: ED₅₀ of lowing blood pressure) came to 0.25 mg/kg. Besides, the “time at which decrease of B.P. reaches maximally” value in assay [1] (anesthetized cat, 250 µg/Kg i.v.) was 5 to 10 min. The “MBP (mm Hg) 1 hour” value in assay [1] (dose 0.125 mg/Kg) is given as -12.5±4.6 mm Hg; in assay [1] (dose 0.25 mg/Kg), -23.1±2.7 mm Hg; in assay [1] (dose 0.5 mg/Kg) it was -49.3±1.5 mm Hg; in assay [1] (dose 1.0 mg/Kg) it was -57.5±2.5 mm Hg. Also, the “MBP (mm Hg) 2 hour” value is listed as -8.75±5.7 mm Hg in assay [1] (dose 0.25 mg/Kg), -32.5±2.5 mm Hg in assay [1] (dose 0.5 mg/Kg) and -44.5±0.5 mm Hg in assay [1] (dose 1.0 mg/Kg). The “changes in heart rate (HR)” value in assay [1] (setting [3]) is listed as “biphasically (initially increases, then decreases)”. For the same compound, the “effect on SBP and DBP” value in assay [1] (setting [3]) was “decreases both SBP and DBP”.
Take `COc1ccccc1N1CCN(CC2CN3C(=O)Nc4ccccc4C3=N2)CC1` (centres unmarked) [Example 7, 2-[4-(2-methoxy)phenyl-1-piperazinyl]methyl-2,3-dihydroimidazo[1,2-c]quinazolin-5(6H)-one]: the values for the inhibition constant Ki at α₁-Adrenergic receptor and on α₂-adrenergic receptor were 1.3 ± 0.5 nM and 3450 ± 329 nM, respectively. The α₂/α₁ ratio with α₂-adrenergic receptor is recorded as 2654. Moreover, the “MBP (mm Hg) 1 hour” value in assay [1] (dose 0.25 mg/Kg) is recorded as -17.5 mm Hg; in assay [1] (dose 0.5 mg/Kg), -20 mm Hg; in assay [1] (dose 1.0 mg/Kg), -30 mm Hg. The “MBP (mm Hg) 2 hour” value in assay [1] (dose 0.5 mg/Kg) is -18.8 mm Hg; in assay [1] (dose 1.0 mg/Kg) it was -15 mm Hg.
In turn, `COc1ccc(N2CCN(CC3CN4C(=O)Nc5ccccc5C4=N3)CC2)cc1` (centres unmarked) [Example 16, 2-[1-(4-methoxyphenyl)piperazinyl]methyl-2,3-dihydroimidazo[1,2-c]quinazolin-5(6H)-one] displayed an inhibitory constant (Ki) at α₁-Adrenergic receptor greater than 100 nM.
On the same count and under the same terms, to `O=C1Nc2ccccc2C2=NC(CNC3CCN(Cc4ccccc4)CC3)CN12` (centres unmarked) [Example 12, 2-[1-benzylpiperidin-4-yl]aminomethyl-2,3-dihydroimidazo[1,2-c]quinazolin-5(6H)-one] belongs 586 ± 9 nM.
`COc1cc2c(cc1OC)C1=NC(CN3CCN(c4ccccc4)CC3)CN1C(=O)N2` (centres unmarked) [Example 25, 2-(4-phenyl-1-piperazinyl)methyl-8,9-dimethoxy-2,3-dihydro-imidazo[1,2-c]quinazolin-5(6H)-one] came in with an inhibitory constant (Ki) at α₁-Adrenergic receptor of 30 ± 10 nM. On α₂-adrenergic receptor, the Ki was found to be 1690 nM and the α₂/α₁ ratio was found to be 54. Besides, in assay [1] (dose 4.0 mg/Kg), the “MBP (mm Hg) 1 hour” value is reported as -38.2±5.7 mm Hg and the “MBP (mm Hg) 2 hour” value was -12.6±5.0 mm Hg.
At α₁-Adrenergic receptor, `O=C1Nc2ccccc2C2=NC(CN3CCC(Cc4ccccc4)CC3)CN12` (centres unmarked) [Example 9, 2-[4-Benzyl-1-piperidinyl]methyl-2,3-dihydroimidazo[1,2-c]quinazolin-5(6H)-one] showed a Ki of 35.8 ± 8.6 nM. Besides, at α₂-adrenergic receptor, the inhibitory constant (Ki) worked out at 5011 ± 11 nM and the α₂/α₁ ratio is reported as 140. Further, in assay [1] (dose 4.0 mg/Kg), the “MBP (mm Hg) 1 hour” value is -30.6±4.7 mm Hg.
`CN1C(=O)N2CC(CN3CCN(c4ccccc4Cl)CC3)N=C2c2ccccc21` (centres unmarked) [Example 28, 2-[4-(2-chlorophenyl)-1-piperazinyl]methyl-6-methyl-2,3-dihydroimidazo[1,2-c]quinazolin-5-one] returned a Ki on α₁-Adrenergic receptor of 0.68 ± 0.26 nM.
“2-[4-(4-fluorobenzyl)-1-piperazinyl]methyl-2,3-dihydroimidazo[1,2-c]quinazolin-5(6H)-one [Example 11]”: affinity on α₁-Adrenergic receptor was put at a Ki of 14.4 nM. On α₂-adrenergic receptor, the Ki stood at 391 nM and the α₂/α₁ ratio was 27.
